# Laboratory results published in patent publication US20260250290A1 (BRISTOL-MYERS SQUIBB COMPANY, priority 2023, published 2026).
# Structures can show the parent of a compound that is named as a salt.
# Target: T1, full length SGK1 (Homo sapiens, UniProt O00141)
# T1 construct: 125 μM full length SGK1 (Life Technologies Part #PR7358A); purchased Life Technologies PR7358A
# T1 sequence (O00141 1-431): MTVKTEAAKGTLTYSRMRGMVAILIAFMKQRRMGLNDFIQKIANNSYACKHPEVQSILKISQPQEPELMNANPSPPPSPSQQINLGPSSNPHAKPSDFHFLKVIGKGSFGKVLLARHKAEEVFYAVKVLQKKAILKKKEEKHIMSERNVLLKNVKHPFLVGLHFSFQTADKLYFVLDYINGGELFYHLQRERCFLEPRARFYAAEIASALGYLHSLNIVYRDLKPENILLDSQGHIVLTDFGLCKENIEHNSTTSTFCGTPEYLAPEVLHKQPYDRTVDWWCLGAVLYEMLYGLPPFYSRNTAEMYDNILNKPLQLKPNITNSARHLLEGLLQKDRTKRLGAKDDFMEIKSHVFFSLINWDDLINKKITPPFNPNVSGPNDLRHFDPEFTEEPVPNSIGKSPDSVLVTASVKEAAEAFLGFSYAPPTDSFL
# Experiment: SGK1 inhibition Assay A (Caliper LabChip electrophoretic separation of fluorescent peptide substrate and phosphorylated product)
# Format: biochemical
# Conditions: Assay A; 20 μM ATP, 40 min incubation; read-out: SGK1 IC50
row,Compound,IC50
1,"CCc1ccc(C(=O)N[C@@H]2CCCN(c3cc(-c4ccc(S(C)(=O)=O)cc4)n4ncnc(N)c34)C2)s1 [Example 91, (R)-N-(1-(4-amino-7-(4-(methylsulfonyl)phenyl)pyrrolo[2,1-f][1,2,4]triazin-5-yl)piperidin-3-yl)-5-ethylthiophone-2-carboxamide]",10 nM
2,"CS(=O)(=O)N1CC=C(c2cc(N3CCC[C@@H](NC(=O)c4ccc(Cl)s4)C3)c3c(N)ncnn23)C1 [Example 134, (R)—N-(1-(4-amino-7-(1-(methylsulfonyl)-2,5-dihydro-1H-pyrrol-3-yl)pyrrolo[2,1-f][1,2,4]triazin-5-yl)piperidin-3-yl)-5-chlorothiophene-2-carboxamide]",2 nM
3,"Cc1nc(OCCN(C)C)c(C(=O)N[C@@H]2CCCN(c3cc(-c4ccc(C#N)nc4)n4ncnc(N)c34)C2)s1 [Example 354, (R)-N-(1-(4-amino-7-(6-cyanopyridin-3-yl)pyrrolo[2,1-f][1,2,4]triazin-5-yl)piperidin-3-yl)-4-(2-(dimethylamino)ethoxy)-2-methylthiazole-5-carboxamide]",6 nM
4,"CC(=O)N1CC=C(c2cc(N3CCC[C@@H](NC(=O)c4sc(C)nc4C)C3)c3c(N)ncnn23)C1 [Example 472, (R)-N-(1-(7-(1-acetyl-2,5-dihydro-1H-pyrrol-3-yl)-4-aminopyrrolo[2,1-f][1,2,4]triazin-5-yl)piperidin-3-yl)-2,4-dimethylthiazole-5-carboxamide]",62 nM
5,"CC(=O)N1CC=C(c2cc(N3CCC[C@@H](NC(=O)c4sc(Cl)cc4OC4CC5CC4CN5)C3)c3c(N)ncnn23)C1 (stereo partly drawn) [Example 606, 3-((2-azabicyclo[2.2.1]heptan-5-yl)oxy)-N-((R)-1-(7-(1-acetyl-2,5-dihydro-1H-pyrrol-3-y1)-4-aminopyrrolo[2,1-f][1,2,4]triazin-5~yl)piperidin-3-y1)-5-chlorothiophene-2-carboxamide]",9 nM
6,"Cc1cc(COCCN2CCOCC2)c(C(=O)N[C@@H]2CCCN(c3cc(-c4ccnc(F)c4)n4ncnc(N)c34)C2)s1 [Example 201, (R)—N-(1-(4-amino-7-(2-fluoropyridin-4-yl)pyrrolo[2,1-f][1,2,4]triazin-5-yl)piperidin-3-yl)-5-methyl-3-((2-morpholinoethoxy)methyl)thiophene-2-carboxamide, 2 TFA]",3 nM
7,"CN(C)CCOc1cc(Cl)sc1C(=O)N[C@@H]1CCCN(c2cc(C3=CCN(C(=O)C4CCC4)C3)n3ncnc(N)c23)C1 [Example 178, (R)-N-(1-(4-amino-7-(1-(cyclobutanecarbonyl)-2,5-dihydro-1H-pyrrol-3-yl)pyrrolo[2,1-f][1,2,4]triazin-5-yl)piperidin-3-yl)-5-chloro-3-(2-(dimethylamino)ethoxy) thiophene-2-carboxamide, 2 TFA]",6 nM
8,"COC(=O)N1CC=C(c2cc(N3CCC[C@@H](NC(=O)c4n[nH]c5ccc(C#N)cc45)C3)c3c(N)ncnn23)C1 [Example 684, methyl (R)-3-(4-amino-5-(3-(5-cyano-1H-indazole-3-carboxamido)piperidin-1-yl)pyrrolo[2,1-f][1,2,4]triazin-7-yl)-2,5-dihydro-1H-pyrrole-1-carboxylate]",261 nM
9,"CC(=O)N1CC=C(c2cc(N3CCC[C@@H](NC(=O)c4cnc(C)cn4)C3)c3c(N)ncnn23)C1 [Example 451, (R)-N-(1-(7-(1-acetyl-2,5-dihydro-1H-pyrrol-3-yl)-4-aminopyrrolo[2,1-f][1,2,4]triazin-5-yl)piperidin-3-yl)-5-methylpyrazine-2-carboxamide]",225 nM

# Now from value to compound:
row,IC50,Compound
1,1 nM,"Nc1ncnn2c(-c3ccc(-n4cncn4)nc3)cc(N3CCC[C@@H](NC(=O)c4ccc(Cl)s4)C3)c12 [Example 251, (R)-N-(1-(7-(6-(1H-1,2,4-triazol-1-yl)pyridin-3-yl)-4-aminopyrrolo[2,1-f][1,2,4]triazin-5-yl)piperidin-3-yl)-5-chlorothiophene-2-carboxamide, TFA]"
2,1 nM,"(R)-N-(1-(4-amino-7-(1-(isoxazole-3-carbonyl)-2,5-dihydro-1H-pyrrol-3-yl)pyrrolo[2,1-f|[1,2,4]triazin-5-yl)piperidin-3-y1)-5-chloro-3-(2-(dimethylamino)ethoxy)thiophene-2-carboxamide [Example 906]"
3,8 nM,"CC(=O)N1CC=C(c2cc(N3CCC[C@@H](NC(=O)c4sc(Cl)cc4OCC4CCNCC4)C3)c3c(N)ncnn23)C1 [Example 640, (R)-N-(1-(7-(1-acetyl-2,5-dihydro-1H-pyrrol-3-yl)-4-aminopyrrolo[2,1-f][1,2,4]triazin-5-y1)piperidin-3-y1)-5-chloro-3-(piperidin-4-ylmethoxy)thiophene~2-carboxamide]"
4,0.3 nM,N#Cc1ccc(-c2cc(N3CCC[C@@H](NC(=O)c4ccc(Cl)s4)C3)c3c(N)ncnn23)cn1 [Example 241]
5,6 nM,"Nc1ncnn2c(-c3ccc(S(=O)(=O)C4CC4)cc3)cc(N3CCC[C@@H](NC(=O)c4ccc(Cl)s4)C3)c12 [Example 228, N-[(3R)-1-{4-amino-7-[4-(cyclopropanesulfonyl)phenyl]pyrrolo[2,1-f][1,2,4]triazin-5-yl}piperidin-3-yl]-5-chlorothiophene-2-carboxamide, TFA]"
6,10 nM,"CC(=O)N1CC=C(c2cc(N3CCC[C@@H](NC(=O)c4sc(Cl)cc4OC4CCNC(C)(C)C4)C3)c3c(N)ncnn23)C1 (mixture of isomers) [Example 627, N-((R)-1-(7-(1-acetyl-2,5-dihydro-1H-pyrrol-3-y1)-4-aminopyrrolo[2,1-f][1,2,4]triazin-5-yl)piperidin-3-y1)-5-chloro-3-((2,2-dimethylpiperidin-4-yl)oxy)thiophene-2-carboxamide]"
7,7 nM,"Nc1ncnn2c(-c3ccnc(C(F)F)c3)cc(N3CCC[C@@H](NC(=O)c4sc(Cl)cc4OCCN4CCC(F)(F)C4)C3)c12 [Example 294, (R)-N-(1-(4-amino-7-(2-(difluoromethyl)pyridin-4-yl)pyrrolo[2,1-f][1,2,4]triazin-5-yl)piperidin-3-yl)-5-chloro-3-(2-(3,3-difluoropyrrolidin-1-yl)ethoxy)thiophene-2-carboxamide]"
8,14 nM,"COC(=O)NCCOc1cc(C(F)F)sc1C(=O)N[C@@H]1CCCN(c2cc(-c3cnc(C#N)c(C)c3)n3ncnc(N)c23)C1 [Example 431, methyl (R)-(2-((2-((1-(4-amino-7-(6-cyano-5-methylpyridin-3-yl)pyrrolo[2,1-f] [1,2,4]triazin-5-yl)piperidin-3-yl)carbamoyl)-5-(difluoromethyl)thiophen-3-yl)oxy)ethyl)carbamate]"
9,5 nM,"CC(=O)c1ccc(-c2cc(N3CCC[C@@H](NC(=O)c4ccc(Cl)s4)C3)c3c(N)ncnn23)cc1 [Example 204, (R)-N-(1-(7-(4-acetylphenyl)-4-aminopyrrolo[2,1-f][1,2,4]triazin-5-yl)piperidin-3-yl)-5-chlorothiophene-2-carboxamide, TFA]"
10,130 nM,"CS(=O)(=O)N1C=C(c2cc(N3CCC[C@@H](NC(=O)c4ccnc(F)c4)C3)c3c(N)ncnn23)CC1 [Example 118, (R)—N-(1-(4-amino-7-(1-(methylsulfonyl)-4,5-dihydro-1H-pyrrol-3-yl)pyrrolo[2,1-f][1,2,4]triazin-5-yl)piperidin-3-yl)-2-fluoroisonicotinamide, TFA]"
11,27 nM,Cc1ccc(C(=O)N[C@@H]2CCCN(c3cc(C4=CN(S(C)(=O)=O)CC4)n4ncnc(N)c34)C2)s1 [Example 125]
